Activity calls are given as the source filed them.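 How the source made its calls: active means fitted curve reaches a 40% rise in fluorescent cells at or below the top valid dose; inactive means opposite-direction effect, or the rest.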

One assay concerns mTEFS fibroblasts autofluorescence, GFP-channel imaging, 3 days. Description: autofluorescent compounds in non-GFP fibroblasts, dose response, artefact control for X-chromosome reactivation project, imaging, mTEFS fibroblasts, cherry-pick (AID 743396).
Details: not given
For the compound `CC1=CC(=Cc2sc3ccccc3[n+]2C)C=C(C)O1`, the AC40 was > 19.5 µM (inactive).

Still in this assay, the particulars now being: cells pretreated with 5-aza-dC.
Consider `COc1ccc(C(=O)Nc2c(F)c(F)c(F)c(F)c2F)cc1OC`, for which the AC40 was > 19.5 µM (inactive). The same measure, in the same setting: the same measure for `Nc1c(C(=O)c2ccccc2)sc2nsc(SCCN3CCCC3)c12`: 10.5 µM; for `CCN1/C(=C/c2ccc3cc(C)ccc3[n+]2CC)Sc2ccccc21`: 0.395 µM; for `CN(C)S(=O)(=O)c1ccc2c(c1)/C(=C/c1cc3c([nH]1)CCCC3)C(=O)N2`: 3.17 µM. Consider `COc1ccc(/C=C/C(=O)c2ccc([N+](=O)[O-])o2)cc1OC`, for which the AC40 is > 19.5 µM (inactive). The same measure, in the same setting: the same measure for `CCOC(=O)/C(=C/C=C1\Sc2cc(C)c(C)cc2N1CC)C(C)=O`: 12.5 µM; for `CCN1CCc2c(sc(NC(=O)Nc3ccc(Cl)c(Cl)c3)c2C(N)=O)C1`: 0.558 µM; for `COc1ccc(CCNC(=O)c2ccc([N+](=O)[O-])cc2)cc1`: 18.8 µM. Still for that read-out and setting: next, `CCN(CC)c1ccc(/C=C(/C#N)C(=O)NCc2ccccc2)o1`: 5.55 µM; `O=[N+]([O-])c1ccc(C2=NN(c3ccccc3)C(c3ccco3)C2)cc1` (stereo unspecified): 2.59 µM.

Consider `CCN1CCc2c(sc(NC(=O)c3ccc4ccccc4c3)c2C(N)=O)C1`, for which the AC40 was 3.45 µM. As to `Nc1ccc2c3c(cccc13)-c1ccccc1-2`, the AC40 was 1.49 µM. The same measure, in the same setting: the same measure for `Cn1c(=O)[nH]c(=O)c2c1nc(SCCN1CCOCC1)n2CCCc1ccccc1`: 10.9 µM; for `N#Cc1ccccc1Cn1cc(/C=N/Nc2ccc([N+](=O)[O-])cn2)c2ccccc21`: 16.1 µM; for `N#C/C(=C/c1ccc(N2CCCCC2)o1)C(=O)Nc1ccc2ccccc2c1`: 1.53 µM. Same read-out and setting: next, `O=C(NC1CCCC1)c1cccc2c1C(=O)c1ccc(/C=C/c3ccccc3)cc1S2(=O)=O`: > 19.5 µM (inactive); `COc1cc2c3nnc(-c4ccccc4)c-3cn(Cc3ccccc3F)c2cc1OC`: 4.02 µM; `COC1C(CO)OC(n2c3c(Cl)cccc3c3c4c(c5c6cccc(Cl)c6[nH]c5c32)C(=O)NC4=O)C(O)C1O` (stereo unspecified): > 19.5 µM (inactive). Take `CCOC(=O)Cn1c(=O)c(-c2cc(Br)ccc2N)nc2ccccc21`: the AC40 is > 19.5 µM (inactive). Regarding `O=CNc1ccc2c3c(cccc13)-c1ccccc1-2`, the AC40 was 8.57 µM. With `COc1ccc(C(=O)c2sc3nc(C)cc(-c4cccs4)c3c2N)cc1`, the AC40 was 14.5 µM. Same read-out and setting: the same measure for `CCN1/C(=C/C=C/c2oc3ccc(-c4ccccc4)cc3[n+]2CC)Oc2ccc(-c3ccccc3)cc21`: 0.00627 µM; for `Cc1cccc(-c2cccc3[nH]c4c(c23)CCN2C(=O)[C@H]3[C@H](C)ON(C)[C@H]3C[C@@H]42)c1`: 14.7 µM; for `Cc1nonc1NC(=O)CSc1nc2c(C)cccc2cc1C#N`: 9.02 µM. As for `Cc1cccc2cc3c(N)c(C(=O)N4CCCc5ccccc54)sc3nc12`, the AC40 is 10.2 µM. As for `CC1=NN(c2nc(N)nc(/C(C#N)=C/c3ccc([N+](=O)[O-])o3)n2)C(C)(C)C1`, the AC40 was 4.78 µM.

For the compound `O=C1c2ccccc2C(=O)C1c1ccccc1`, the AC40 was > 19.5 µM (inactive). The same measure, in the same setting: next, `Cc1ccccc1-c1ccc(C2[C@@H]3CN(Cc4cocn4)C[C@H]2N3)cc1` (stereo partly specified): > 2.35 µM (inactive); `C/C(=N\Nc1ncnc2sc(C)c(C)c12)c1ccccn1`: 1.55 µM. Same read-out and setting: next, `CCCN1C(=O)S/C(=C\c2ccc(N3CCOCC3)o2)C1=O`: > 19.5 µM (inactive); `COc1ccc(N(C)S(=O)(=O)c2cccc(C(=O)NCC(c3cccs3)N(C)C)c2)cc1` (stereo unspecified): 13.9 µM. The same measure, in the same setting: next, `CCCCNc1ccc2c3c(cccc13)C(=O)N(CCCC)C2=O`: 4.11 µM. On to `CCCCN(C)C1=CC2=CC(=C(C#N)C#N)CCC2CC1` (stereo unspecified), for which the AC40 is 3.44 µM.

As for `O=c1oc2cc(O)ccc2cc1-c1nc2c(s1)CCc1ccccc1-2`, the AC40 was 4.39 µM. The same measure, in the same setting: the same measure for `CCCCCC[n+]1ccccc1/C=C/c1ccc(N(C)C)cc1`: > 19.5 µM (inactive); for `CN1/C(=C/C=C(C#N)C#N)C(C)(C)c2ccccc21`: 19.4 µM. With `Cc1ccc(Cl)c2c(N=Nc3ccccc3)c(O)[nH]c12`, the AC40 is > 19.5 µM (inactive). Still for that read-out and setting: next, `COC1=CC(=O)c2nc(Cl)ccc2C1=O`: 18.5 µM; `CN(C)c1ccc(/C=C(/C#N)C(=O)NCc2ccccc2)o1`: 14.7 µM; `N#C/C(=C/c1ccc(N2CCCCC2)o1)C(=O)NCCc1c[nH]c2ccccc12`: 5.61 µM. Still for that read-out and setting: the same measure for `COc1cccc(C(=O)c2c(-c3ccccc3)ncc3cc(OC)c(OC)cc23)c1`: 19.4 µM; for `CCOC(=O)/C=c1\s/c(=C\c2ccc3cc(OC)ccc3c2)c(=O)n1CC(=O)NCc1ccc2c(c1)OCO2`: 4.43 µM. Still for that read-out and setting: the same measure for `CCN1/C(=C/c2ccc3cc(C)ccc3[n+]2CC)Sc2cc(C)ccc21`: 6.21 µM; for `Cn1cc(C2=C(c3ccc(Cl)cc3Cl)C(=O)NC2=O)c2ccccc21`: 12.7 µM; for `Cc1n[nH]c(=S)n1/N=C/c1ccc(-c2ccc(Cl)cc2)o1`: > 19.5 µM (inactive).

Turning to `CC(=O)Oc1cccc(N2C(=O)c3cccc4c([N+](=O)[O-])ccc(c34)C2=O)c1`, the AC40 was > 19.5 µM (inactive). As to `Cc1n[nH]c(=S)n(/N=C/c2cccc([N+](=O)[O-])c2)c1=O`, the AC40 is > 19.5 µM (inactive). Still for that read-out and setting: the same measure for `O=[N+]([O-])c1ccc(N2N=C(c3ccccc3)CC2c2ccccc2O)cc1` (stereo unspecified): 14.1 µM; for `CC(=O)[C@@]1(O)Cc2c(O)c3c(c(O)c2[C@H](O[C@H]2C[C@H](N)[C@H](O)[C@H](C)O2)C1)C(=O)c1ccccc1C3=O`: > 2.1 µM (inactive). Still for that read-out and setting: the same measure for `CCC(CO)[n+]1c(C)cc(/C=C2\Sc3ccccc3N2Cc2ccccc2)cc1C` (stereo unspecified): 7.28 µM. With `O=C(NCc1ccccc1)c1cccc2c1C(=O)c1ccc(/C=C/c3ccccc3)cc1S2(=O)=O`, the AC40 was 15 µM.

For `Cc1oc2ccc(NS(=O)(=O)c3cccc4cccnc34)cc2c1C(=O)OC(C)C`, the AC40 was 4.77 µM.

Take `CCN(CC)c1ccc2cc(C(=O)c3cccs3)c(=O)oc2c1`: the AC40 was 11.3 µM.

With `Cc1nnc(N2C(=O)c3cccc4c([N+](=O)[O-])ccc(c34)C2=O)s1`, the AC40 is > 19.5 µM (inactive). Same read-out and setting: next, `N#C/C(=C/c1ccc(-c2ccccc2)o1)c1nc(-c2cccs2)cs1`: 7.35 µM.

As for `COc1cc2c3nnc(-c4ccc(F)cc4)c-3cn(Cc3ccccc3F)c2cc1OC`, the AC40 is 2.46 µM. The same measure, in the same setting: the same measure for `COc1ccc(N2CCN(C(=O)c3cc4c(s3)-c3ccccc3OC4)CC2)cc1`: > 19.5 µM (inactive); for `Cc1cc(N/N=C/c2ccc([N+](=O)[O-])o2)nc2ccccc12`: 13.8 µM. Same read-out and setting: the same measure for `COc1ccc2c(n1)Sc1nc3ccccc3nc1N2`: 12.5 µM; for `CC(=NNc1nc2ccccc2o1)c1cc2ccccc2cn1`: 8.99 µM; for `N#C/C(=C/c1ccc(-c2ccc(S(N)(=O)=O)cc2)o1)c1nc2ccccc2s1`: 2.25 µM. The same measure, in the same setting: next, `O=[N+]([O-])c1ccc(/C=C/C2=NN(c3ccccc3)C(c3ccco3)C2)cc1` (stereo unspecified): 3.37 µM; `N#CC(C#N)=C1C=C2C=C(N3CCCCCC3)CCC2CC1` (stereo unspecified): 6.6 µM; `C/C(CC(=O)Nc1ccc(C)c(Cl)c1)=N\NC(=O)Cc1ccccc1`: 18.1 µM. With `Cc1ccc(NC(=O)/C=C/c2ccc([N+](=O)[O-])s2)c(C)c1`, the AC40 is 7.81 µM. As for `CN(C)CCCN1C(=O)c2cccc3c([N+](=O)[O-])ccc(c23)C1=O`, the AC40 was > 19.5 µM (inactive). The same measure, in the same setting: next, `CC(=O)Nc1cc2c3c(cccc3c1)-c1ccccc1-2`: 2.19 µM; `CCN(CC)c1ccc(/C=C/c2cc(-c3ccccc3)c3ccccc3n2)cc1`: 12.8 µM; `C[C@@H]1CCCCO[C@H](CN(C)C(=O)Nc2ccc(C(F)(F)F)cc2)[C@H](C)CN([C@H](C)CO)C(=O)c2cc(NC(=O)CCC(F)(F)F)ccc2O1`: 17.4 µM. The same measure, in the same setting: next, `Cc1ccc2cc3c(N)c(C(=O)Nc4c(C)[nH]c(=O)[nH]c4=O)sc3nc2c1`: > 19.5 µM (inactive). For the compound `COc1ccc(Cn2cc3c(-c4ccc(F)cc4)nnc-3c3cc(OC)c(OC)cc32)cc1`, the AC40 is 6.18 µM. For `Cc1ccc2c(c1)c(/C=C/c1cc[n+](C)cc1)c(C)n2C`, the AC40 is 10.1 µM. For `O=C(N/N=C\c1c(O)ccc2ccccc12)c1ccc(S(=O)(=O)N2CCCCC2)cc1`, the AC40 is 19.2 µM. The same measure, in the same setting: next, `CCN1CCc2c(sc(NC(=O)c3ccc(S(=O)(=O)N(CC)c4ccccc4)cc3)c2C(N)=O)C1`: 6.59 µM; `N#Cc1c(-c2ccccc2F)cc(C2CC2)nc1SCC(=O)c1cccs1`: 9.82 µM; `CC(NC(=O)/C(C#N)=C/c1ccc([N+](=O)[O-])o1)c1ccccc1` (stereo unspecified): > 19.5 µM (inactive). `O=[N+]([O-])c1ccc(N/N=C/c2ccc[nH]2)cc1`: the AC40 was > 19.5 µM (inactive). Still for that read-out and setting: the same measure for `CCN1/C(=C/c2ccc3cc(C)cc(C)c3[n+]2CC)Sc2cc(C)ccc21`: 10.4 µM. In the case of `CC(C)N1CCc2c(sc(NC(=O)c3ccc4ccccc4c3)c2C(N)=O)C1`, the AC40 was 10.6 µM. The same measure, in the same setting: the same measure for `COc1ccccc1-[n+]1c(C)cc(/C=C2\Sc3ccccc3N2C)cc1C`: 3.52 µM. Same read-out and setting: next, `COc1ccc2nc(C)cc(NCc3ccc(F)cc3)c2c1`: 4.85 µM; `CCN(CC)c1ccc2cc(-c3nc(-c4ccc(OC)cc4)cs3)c(=O)oc2c1`: 0.0781 µM. With `COc1ccccc1N1N=C(c2ccc([N+](=O)[O-])cc2)CC1c1ccccc1` (stereo unspecified), the AC40 is 5.77 µM. For `c1ccc(-c2cnn3c(-c4ccccc4)c(-c4ccccc4)nc3n2)cc1`, the AC40 is 2.58 µM.

`N#C/C(=C\c1ccc(N2CCCCC2)o1)C(=O)Nc1cccc(Br)c1`: the AC40 is 0.919 µM. The same measure, in the same setting: next, `COc1cc2c3nnc(-c4ccc(F)cc4)c-3cn(Cc3ccccc3)c2cc1OC`: 3.67 µM. Still for that read-out and setting: the same measure for `Nc1c(C(=O)Nc2ccc(S(=O)(=O)N3CCCC3)cc2)sc2nc3cc4c(cc3cc12)CCC4`: 10.6 µM. In the case of `Cc1ccc(NC(=O)/C=C/c2ccc([N+](=O)[O-])s2)cc1`, the AC40 is 4.44 µM.

Turning to `CCc1cccc2cc3c(N)c(C(=O)Nc4ccc(S(=O)(=O)N5CCCC5)cc4)sc3nc12`, the AC40 was 7.09 µM. The same measure, in the same setting: the same measure for `Cc1c2c(cc3c1[nH]c1ccccc13)C=NCC2`: 15.8 µM.

The values are drawn from PubChem BioAssay AID743396 (Broad Institute, 2014).
